Laboratory results reported in US20030202967A1, “Development and use of human pancreatic cell lines” (priority 1995, published 2003).

Columns and labels:
TRM-1 cells = experiment: Insulin production from TRM-1 cells (radioimmunoassay); assay type: cell-based, human
Procedure: Levels of insulin and glucagon released into medium and the corresponding hormone content of acid ethanol extracts of sonicated cells were measured by radioimmunoassay (RIA) as described in Otonkoski, T., et al., J. Clin. Invest., 92:1459-1466 (1993).
Cells grown in this way were treated with nicotinamide for varying periods of time and assayed for insulin production using an extremely sensitive radioimmunoassay {Beattie, G., et al., J. Clin. Endocr. Metab., 78:1232-40 (1994)}.

[1] = tested on: epithelial cells in the human fetal pancreas (HFP); experiment: Mitogenic effect on human fetal pancreas epithelial cells; assay type: cell-based
Procedure: Sci., 05:753-64 (1993)}. Thus, in this example, the epithelial cells were initially grown in the extracellular matrix from 804G cells and HGF/SF in DMEM, supplemented with 10% fetal bovine serum, at 37° C. and 10% CO2. In this growth condition, the epithelial cells formed an islet-like cell cluster (ICC)-derived monolayer cultures having a doubling time of 48 hours. With such high percentage of mitotically active cells, the use of retroviral vectors which require mitotically active cells for successful integration of viral DNA become attractive. After retroviral infection, the epithelial cells were grown in DMEM, supplemented with 10% fetal bovine serum, at 37° C. and 10% CO2, without the extracellular matrix from 804G cells and HGF/SF. The use of HGF/SF offers an added advantage of selecting for epithelial over stromal cells. Stromal cells produce the growth factor HGF. […] Thus, HGF/SF treatment results in selective growth of the epithelial cells but also increases the mitotic index of the epithelial cells. The following method used the HGF/SF method.

[2] = tested on: CAT activity in LNSVoCL-infected 208F clones; assay type: cell-based, rat; settings: some LNSVoCL-infected 208F clones also infected with pLISVHygL
Procedure: The ability of LNSVoCL and LoCRNLo to mediate inducible CAT expression was tested in rat 208F cells. The cells were infected by one of the two CAT-expressing vectors followed by the lac repressor-expressing vector pLISVHygL. Infected cells were selected in media containing G418 and hygromycin. CAT activity in LNSVoCL-infected 208F clones was determined in the presence or absence of IPTG.

## Cn1c(=O)c2[nH]cnc2n(C)c1=O [theophylline]
TRM-1 cells; TRM-1 cells
  Stimulation of insulin production by treatment: not stimulated

## HGF/SF: growth factor/scatter factor, ligand of the met receptor
[1]
  Mitogenic effect: strongly mitogenic

## CC(C)SC1O[C@H](CO)[C@H](O)[C@H](O)[C@H]1O (stereo partly shown) [IPTG, isopropyl thiogalactopyranoside]
[2]
  Increase in CAT activity in the presence of IPTG over its absence: 80-100 fold

## NC(=O)c1cccnc1 [Nic., nicotinamide]
TRM-1 cells; TRM-1 suspension culture +10 mM Nic., Day 0
  Insulin production Day 0: 0 μU insulin/48 hr/ml medium
TRM-1 cells; TRM-1 suspension culture +10 mM Nic., Day 5
  Insulin production Day 5: 0 μU insulin/48 hr/ml medium
TRM-1 cells; TRM-1 suspension culture +10 mM Nic., Day 7
  Insulin production Day 7: 0 μU insulin/48 hr/ml medium
TRM-1 cells; TRM-1 suspension culture +10 mM Nic., Day 11
  Insulin production Day 11: 2.8 μU insulin/48 hr/ml medium
TRM-1 cells; TRM-1 suspension culture +10 mM Nic., Day 13
  Insulin production Day 13: 4.0 μU insulin/48 hr/ml medium
TRM-1 cells; TRM-1 suspension culture +10 mM Nic., Day 17
  Insulin production Day 17: 5.6 μU insulin/48 hr/ml medium
TRM-1 cells; TRM-1 suspension cultures, after 11 days of exposure
  Insulin expression in suspension cultures: small amounts of insulin
